The values that follow come from patent publication US6476079B1, “Devices for the delivery of drugs having antiprogestinic properties” (priority 1999, dated 2002).

The nature of this series: Permeation test of antiprogestins through elastomer membranes (two-compartment diffusion cell). The format is physicochemical. Particulars: 37° C. Here is the method: The assay apparatus described in the publication Yie W. Chien, Transdermal Controlled Systemic Medications, Marcel Dekker Inc., New York and Basel 1987, page 173, was used in the tests.
The drug fluxes (permeations) through membranes were measured with a two-compartment diffusion cell at 37° C. (Side-Bi-Side™ diffusion cell, Crown Glass Company). The apparatus consisted of two concentric cells (donor and receptor compartments) that were separated by the elastomer membrane to be investigated. […] A drug solution and solvent (without drug) was added into the donor and the receptor compartments. At each predetermined time interval, samples were withdrawn from the receptor compartment and replaced with the same volume of solvent. The amount of the drug that permeated through the membrane was measured by HPLC. In all measurements, the thickness (0.4 mm) of the membrane and the surface area of the membranes were constant.
In the tests described below, the permeation rates of two different drugs through a 0.4-mm-thick elastomer membrane were measured by using the assay apparatus described above. The tables below show the effect of the concentration of PEO groups (% by weight of the said compositions) on the permeation rates of the different drugs for elastomers prepared from different composition types. The tables show the relative permeation as compared with a commercial crosslinked dimethyl siloxane-vinyl methyl siloxane elastomer (Mn approximately 400,000 g/mol) containing a silica filler.

Where [1] appears, read: composition type A, PEO concentration 4.7 % by weight, 0.4 mm membrane, relative to reference elastomer.
Setting [2] is: composition type A, PEO concentration 5.1 % by weight, 0.4 mm membrane, relative to reference elastomer.
Setting [3] is: reference membrane: commercial crosslinked dimethyl siloxane-vinyl methyl siloxane elastomer with silica filler, PEO 0 % by weight, 0.4 mm.
Setting [4] is: composition type B, PEO concentration 3.1 % by weight, 0.4 mm membrane, relative to reference elastomer.
[5] abbreviates: composition type B, PEO concentration 4.1 % by weight, 0.4 mm membrane, relative to reference elastomer.
Where [6] appears, read: composition type B, PEO concentration 5.0 % by weight, 0.4 mm membrane, relative to reference elastomer.
Where [7] appears, read: composition type B, PEO concentration 7.5 % by weight, 0.4 mm membrane, relative to reference elastomer.
[8] abbreviates: composition type B, PEO concentration 9.8 % by weight, 0.4 mm membrane, relative to reference elastomer.

Regarding `COC[C@]1(OC)CC[C@H]2[C@@H]3CCC4=CC(=O)CCC4=C3[C@@H](c3ccc(/C=N/O)cc3)C[C@@]21C` [Compound 1, 4-[17β-methoxy-17α-(methoxymethyl)-3-oxoestra-4,9-dien-11β-yl]benzaldehyde-1-(E)-oxime], the Relative permeation turned out to be 3.5 under setting [1], 5.3 under setting [2] and 1 under setting [3].

As to `CCNC(=O)ON=Cc1ccc(C2CC3(C)C(CCC3(COC)OC)C3CCC4=CC(=O)CCC4=C23)cc1` (stereo not drawn) [Compound 2, 4-[17β-Methoxy-17α-(methoxymethyl)-3-oxoestra-4,9-dien-11β-yl]benzaldehyde-1-[O-(ethylamino)carbonyl]oxime], the Relative permeation was 4.1 under setting [1]; 7.6 under setting [2]; 3.7 under setting [4]; 4.1 under setting [5]; 5.8 under setting [6]; 11.5 under setting [7]. Also, the Relative permeation runs as follows: under setting [8], 17.3; under setting [3], 1.

With `CCSC(=O)O/N=C/c1ccc([C@H]2C[C@@]3(C)[C@@H](CC[C@@]3(COC)OC)[C@@H]3CCC4=CC(=O)CCC4=C32)cc1` [Compound 3], the Relative permeation is listed as 2.1 (composition type B, PEO concentration 1.4 % by weight, 0.4 mm membrane, relative to reference elastomer); 6.4 under setting [8]; 1 under setting [3].

Turning to `CC(=O)c1ccc([C@H]2C[C@@]3(C)[C@@H](CC[C@@]3(O)C(F)(F)C(F)(F)F)[C@@H]3CCC4=CC(=O)CCC4=C32)cc1` [Compound 4, 11β-(4-Acetylphenyl)-17β-hydroxy-17α-(1,1,2,2,2-pentafluoroethyl)estra-4,9-dien-3-one], the Relative permeation under setting [7] came to 16.4, the Relative permeation under setting [8] was 27.6 and the Relative permeation under setting [3] amounted to 1.

Turning to `CN(C)c1ccc([C@H]2C[C@@]3(C)[C@@H](CC[C@@]3(O)/C=C\CO)[C@@H]3CCC4=CC(=O)CC[C@@H]4[C@H]32)cc1` [Compound 5, Estr-4-en-3-one, 11-[4-(dimethylamino)phenyl]-17-hydroxy-17-(3-hydroxy-1-propenyl)-,[11.beta,17β,17(Z)]-(9CI)], the Relative permeation runs as follows: under setting [1], 4.1; under setting [4], 6.0; under setting [5], 6.7; under setting [6], 10.7; under setting [7], 18.7; under setting [8], 37.2. The Relative permeation under setting [3] was 1.

Take “(Z)-6′-(4-Cyanophenyl)-17-β-hydroxy-17-α-(3-isovaleryloxy-1-propenyl))-9,11-α-diydro-4′H-naphth [3′,2′,1′:10,9,11]estr-4-en-3-one [Compound 6]”: the Relative permeation reads like this: under setting [1], 2.9; (composition type A, PEO concentration 5.3 % by weight, 0.4 mm membrane, relative to reference elastomer) 5.9; under setting [3], 1.
